Assay results published in patent US20210395248A1, “INHIBITORS OF HUMAN IMMUNODEFICIENCY VIRUS REPLICATION” (ViiV HEALTHCARE UK (NO.5) LIMITED, priority 2018, published 2021).
Like-named read-outs stand apart in the source and are kept apart here.

Assays:
[1] = system: recombinant NL4-3 virus (Renilla luciferase reporter) in MT-2 cells; test: HIV cell culture assay (antiviral activity, luciferase readout in infected MT-2 cells); type: cell-based; details: NL43
[2] = Compound cytotoxicity, XTT-based colorimetric assay; type: cell-based; details: human
Experimental: Compound cytotoxicity and the corresponding CC50 values were determined using the same protocol as described in the antiviral assay except that uninfected cells were used. Cytotoxicity was assessed on day 4 in uninfected MT2 cells by using a XTT (2,3-bis [2-Methoxy-4-nitro-5-sulfophenyl]-2H-tetrazolium-5-carboxyanilide inner salt)-based colorimetric assay (Sigma-Aldrich, St Louis, Mo.).

[3] = uninfected MT2 cells, day 4, XTT, read-out: CC50

For `C[C@@H]1CN(c2ccc3c(=O)n(-c4ccc(Cl)c5c(NS(C)(=O)=O)nn(CC(F)(F)F)c45)c([C@H](Cc4cc(F)cc(F)c4)NC(=O)Cn4nc(C(F)(F)F)c5c4C(F)(F)[C@@H]4C[C@H]54)nc3n2)C[C@H](C)O1` (atropisomer, axis not shown; (aR)) [Example 8, N—((S)-1-(3-(4-chloro-3-(methylsulfonamido)-1-(2,2,2-trifluoroethyl)-1H-indazol-7-yl)-7-((2S,6R)-2,6-dimethylmorpholino)-4-oxo-3,4-dihydropyrido[2,3-d]pyrimidin-2-yl)-2-(3,5-difluorophenyl)ethyl)-2-((3bS,4aR)-5,5-difluoro-3-(trifluoromethyl)-3b,4,4a,5-tetrahydro-1H-cyclopropa[3,4]cyclopenta[1,2-c]pyrazol-1-yl)acetamide], which EC50 [1] is on record?
The EC50 was 0.032 nM.

What about the CC50 at 4 days [2, 3] of the same molecule?
Its CC50 at 4 days is greater than 500 nM.

What does the source list for `CC(F)CCNc1ccc2c(=O)n(-c3ccc(Cl)c4c(NS(C)(=O)=O)nn(C)c34)c([C@H](Cc3cc(F)cc(F)c3)NC(=O)Cn3nc(C(F)F)c4c3C(F)(F)[C@@H]3C[C@H]43)nc2n1` (stereo partly drawn) [Example 9, N-((1S)-1-((3P)-3-(4-chloro-1-methyl-3-(methylsulfonamido)-1H-indazol-7-yl)-7-((3-fluorobutyl)amino)-4-oxo-3,4-dihydropyrido[2,3-d]pyrimidin-2-yl)-2-(3,5-difluorophenyl)ethyl)-2-((3bS,4aR)-3-(difluoromethyl)-5,5-difluoro-3b,4,4a,5-tetrahydro-1H-cyclopropa[3,4]cyclopenta[1,2-c]pyrazol-1-yl)acetamide]?
EC50 [1]: 0.046 nM; CC50 at 4 days [2, 3]: > 100 nM

Which results are given for `CCN(CCC(F)(F)F)c1ccc2c(=O)n(-c3ccc(Cl)c4c(NS(C)(=O)=O)nn(C)c34)c([C@H](Cc3cc(F)cc(F)c3)NC(=O)Cn3nc(C(F)F)c4c3C(F)(F)[C@@H]3C[C@H]43)nc2n1` [Example 10, N—((S)-1-((3P)-3-(4-chloro-1-methyl-3-(methylsulfonamido)-1H-indazol-7-yl)-7-(ethyl(3,3,3-trifluoropropyl)amino)-4-oxo-3,4-dihydropyrido[2,3-d]pyrimidin-2-yl)-2-(3,5-difluorophenyl)ethyl)-2-((3bS,4aR)-3-(difluoromethyl)-5,5-difluoro-3b,4,4a,5-tetrahydro-1H-cyclopropa[3,4]cyclopenta[1,2-c]pyrazol-1-yl)acetamide]?
EC50 [1]: 0.037 nM; CC50 at 4 days [2, 3]: > 100 nM

Which results are given for `Cn1nc(NS(C)(=O)=O)c2c(Cl)ccc(-n3c([C@H](Cc4cc(F)cc(F)c4)NC(=O)Cn4nc(C(F)F)c5c4C(F)(F)[C@@H]4C[C@H]54)nc4nc(N5C6CCC5COC6)ccc4c3=O)c21` [Example 20, N-((1S)-1-(7-(3-oxa-8-azabicyclo[3.2.1]octan-8-yl)-(3P)-3-(4-chloro-1-methyl-3-(methylsulfonamido)-1H-indazol-7-yl)-4-oxo-3,4-dihydropyrido[2,3-d]pyrimidin-2-yl)-2-(3,5-difluorophenyl)ethyl)-2-((3bS,4aR)-3-(difluoromethyl)-5,5-difluoro-3b,4,4a,5-tetrahydro-1H-cyclopropa[3,4]cyclopenta[1,2-c]pyrazol-1-yl)acetamide]?
EC50 [1]: 0.05 nM; CC50 at 4 days [2]: > 100 nM

What does the source list for `Cn1nc(NS(C)(=O)=O)c2c(Cl)ccc(-n3c([C@H](Cc4cc(F)cc(F)c4)NC(=O)Cn4nc(C(F)F)c5c4C(F)(F)[C@@H]4C[C@H]54)nc4nc(N5CC6CCC(C5)O6)ccc4c3=O)c21` [Example 21, N-((1S)-1-(7-(8-oxa-3-azabicyclo[3.2.1]octan-3-yl)-(3P)-3-(4-chloro-1-methyl-3-(methylsulfonamido)-1H-indazol-7-yl)-4-oxo-3,4-dihydropyrido[2,3-d]pyrimidin-2-yl)-2-(3,5-difluorophenyl)ethyl)-2-((3bS,4aR)-3-(difluoromethyl)-5,5-difluoro-3b,4,4a,5-tetrahydro-1H-cyclopropa[3,4]cyclopenta[1,2-c]pyrazol-1-yl)acetamide]?
EC50 [1]: 0.058 nM; CC50 at 4 days [2, 3]: > 100 nM
